Experimental data from ChEMBL document CHEMBL1154617, “Synthesis and biological evaluation of 17beta-hydroxysteroid dehydrogenase type 1 (17beta-HSD1) inhibitors based on a thieno[2,3-d]pyrimidin-4(3H)-one core” (J Med Chem, 2009).
Active and inactive are the calls of the source. No cut-off for these calls is given here.

Tests used:
[1] = target: T1, 17-beta-hydroxysteroid dehydrogenase type 1 (Homo sapiens) (UniProt P14061); assay: Inhibition of human recombinant 17beta-HSD1 at 1 uM by cell-free assay; type: single protein
T1 sequence (whole entry): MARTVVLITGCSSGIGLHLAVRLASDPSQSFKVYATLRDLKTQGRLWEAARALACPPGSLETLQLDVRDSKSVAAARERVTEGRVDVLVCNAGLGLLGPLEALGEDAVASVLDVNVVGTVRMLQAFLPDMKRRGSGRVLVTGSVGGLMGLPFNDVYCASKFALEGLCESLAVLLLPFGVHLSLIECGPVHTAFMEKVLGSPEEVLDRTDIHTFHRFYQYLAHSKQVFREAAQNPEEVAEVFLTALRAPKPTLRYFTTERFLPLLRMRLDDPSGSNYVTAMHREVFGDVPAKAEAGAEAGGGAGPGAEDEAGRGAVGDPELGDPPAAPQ

[2] = target: T1, 17-beta-hydroxysteroid dehydrogenase type 1 (Homo sapiens); assay: Inhibition of human recombinant 17beta-HSD1 expressed in human MCF7 cells at 0.1 uM by cell-based assay
[3] = target: T1, 17-beta-hydroxysteroid dehydrogenase type 1 (Homo sapiens); assay: Inhibition of human recombinant 17beta-HSD1 expressed in human MCF7 cells at 1 uM by cell-based assay
[4] = target: T2, 17-beta-hydroxysteroid dehydrogenase type 2 (Homo sapiens) (UniProt P37059); assay: Inhibition of human recombinant 17beta-HSD2 at 0.1 uM by cell-free assay
T2 sequence (whole entry): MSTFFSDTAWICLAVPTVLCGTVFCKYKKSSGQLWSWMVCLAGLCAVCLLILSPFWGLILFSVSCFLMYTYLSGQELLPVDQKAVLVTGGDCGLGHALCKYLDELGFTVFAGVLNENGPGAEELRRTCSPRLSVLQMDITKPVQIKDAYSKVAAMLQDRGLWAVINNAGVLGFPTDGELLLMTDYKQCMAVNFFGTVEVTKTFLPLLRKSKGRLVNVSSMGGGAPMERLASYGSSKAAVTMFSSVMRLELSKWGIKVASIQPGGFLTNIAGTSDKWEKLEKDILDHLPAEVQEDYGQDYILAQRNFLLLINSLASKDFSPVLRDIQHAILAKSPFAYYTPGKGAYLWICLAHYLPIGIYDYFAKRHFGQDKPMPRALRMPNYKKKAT

[5] = target: T2, 17-beta-hydroxysteroid dehydrogenase type 2 (Homo sapiens); assay: Inhibition of human recombinant 17beta-HSD2 at 1 uM by cell-free assay
Estrogen receptor = target: T3, Estrogen receptor (Homo sapiens, UniProt P03372); assay: Activity at human recombinant ERalpha by fluorescence polarization assay
T3 sequence (P03372 whole entry): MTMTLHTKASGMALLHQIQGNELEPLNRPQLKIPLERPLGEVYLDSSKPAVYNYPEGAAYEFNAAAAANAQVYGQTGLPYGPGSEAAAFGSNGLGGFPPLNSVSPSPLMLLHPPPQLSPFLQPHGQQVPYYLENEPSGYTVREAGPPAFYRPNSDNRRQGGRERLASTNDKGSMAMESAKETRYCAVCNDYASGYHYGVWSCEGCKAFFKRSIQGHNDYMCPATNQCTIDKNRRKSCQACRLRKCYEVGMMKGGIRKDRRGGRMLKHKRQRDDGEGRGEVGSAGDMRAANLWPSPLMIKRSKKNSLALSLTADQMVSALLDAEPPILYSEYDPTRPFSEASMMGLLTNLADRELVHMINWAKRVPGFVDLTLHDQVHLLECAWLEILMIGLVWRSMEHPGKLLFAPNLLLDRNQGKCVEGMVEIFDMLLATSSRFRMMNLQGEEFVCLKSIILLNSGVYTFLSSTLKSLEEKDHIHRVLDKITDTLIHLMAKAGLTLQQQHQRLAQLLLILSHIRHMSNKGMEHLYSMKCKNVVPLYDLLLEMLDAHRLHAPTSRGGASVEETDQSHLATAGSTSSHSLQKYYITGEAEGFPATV

Estrogen receptor beta = Estrogen receptor beta (Homo sapiens, UniProt Q92731); assay: Activity at human recombinant ERbeta by fluorescence polarization assay
[6] = target: T1, 17-beta-hydroxysteroid dehydrogenase type 1 (Homo sapiens); assay: Inhibition of human recombinant 17beta-HSD1 at 0.1 uM by cell-free assay; type: single protein

Sequence of Estrogen receptor beta (Q92731 whole entry): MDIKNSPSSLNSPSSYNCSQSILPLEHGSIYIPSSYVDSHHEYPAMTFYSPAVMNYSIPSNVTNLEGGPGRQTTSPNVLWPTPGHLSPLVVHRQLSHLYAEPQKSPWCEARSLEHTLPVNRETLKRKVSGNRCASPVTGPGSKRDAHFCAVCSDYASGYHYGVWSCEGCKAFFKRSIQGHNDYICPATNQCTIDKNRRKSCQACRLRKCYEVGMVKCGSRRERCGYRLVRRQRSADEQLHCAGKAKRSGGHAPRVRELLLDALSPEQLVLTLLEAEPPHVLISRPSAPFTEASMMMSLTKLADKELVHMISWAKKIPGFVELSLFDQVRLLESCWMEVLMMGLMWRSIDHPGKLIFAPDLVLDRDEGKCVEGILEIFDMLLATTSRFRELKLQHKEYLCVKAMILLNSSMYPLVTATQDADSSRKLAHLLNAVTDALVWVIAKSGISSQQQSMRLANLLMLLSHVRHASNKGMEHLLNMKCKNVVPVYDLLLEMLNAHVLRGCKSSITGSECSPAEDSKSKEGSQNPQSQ

SMILES | inhibition [1] [%] | inhibition [2] [%] | inhibition [3] [%] | inhibition [4] | inhibition [5] | EC50 (Estrogen receptor) [µM] | EC50 (Estrogen receptor beta) [µM] | inhibition [6]
O=Cc1ccc2c(sc3nc4n(c(=O)c32)CCCCC4)c1Sc1ccccc1 | 88.4 | 15.1 | 87.9 | inactive | inactive | > 1 | > 1 | 26.9%
O=CC1=C(Sc2ccc(C(=O)O)cc2)c2sc3nc4n(c(=O)c3c2CC1)CCCCC4 | 22.1 | – | – | – | – | – | – | 3.8%
O=CC1=C(Cl)c2sc3nc4n(c(=O)c3c2CC1)CCC4 | 26.1 | 19.7 | 38.6 | – | – | – | – | 3.3%
O=CC1=C(Sc2ccc(O)cc2)c2sc3nc4n(c(=O)c3c2CC1)CCCCC4 | 1.8 | 36.5 | 76.8 | 21.7% | 22.6% | – | – | 58.5%
O=CC1=C(SCC(=O)N2CCOCC2)c2sc3nc4n(c(=O)c3c2CC1)CCCCC4 | 7.8 | 3.9 | 39.4 | 3.9% | 3.1% | – | – | 4%
COc1ccc(SC2=C(C=O)CCc3c2sc2nc4n(c(=O)c32)CCCCC4)cc1 | 89.8 | 24.6 | 71.6 | 8.6% | 53% | – | – | 89%
O=c1c2c3c(sc2nc2n1CCCCC2)C(Cl)=C(CO)CC3 | 39.9 | 25.9 | 36.2 | – | – | – | – | 14.5%
CCCSC1=C(C=O)CCc2c1sc1ncn(C)c(=O)c21 | 55.8 | 19.5 | 48.2 | 12.9% | 17.4% | – | – | 24.3%
CCCSc1c(CO)ccc2c1sc1nc3n(c(=O)c12)CCCCC3 | 85.9 | 35.6 | 78.6 | 13.6% | 20.6% | – | – | 69%
O=C1CCCc2c1sc1nc3n(c(=O)c21)CCCC3 | 3.8 | 6.3 | 35.8 | – | – | – | – | inactive
CCCSc1c(C=O)ccc2c1sc1nc3n(c(=O)c12)CCCCC3 | 90.6 | 28.5 | 86.4 | 3.8% | 12.7% | – | – | 83%
O=CC1=C(SC2CCCCC2)c2sc3nc4n(c(=O)c3c2CC1)CCCCC4 | 82.2 | 32.7 | 63.9 | inactive | inactive | > 10 | > 1 | 51.2%
O=c1c2c(nc3n1CCCCC3)sc1c(Sc3ccccc3)c(CO)ccc12 | 87.5 | 30.5 | 46.9 | 30.8% | 37.3% | – | – | 80.5%
O=c1c2c3c(sc2nc2n1CCCCC2)C(Cl)=C(/C=N/O)CC3 | 17.9 | 14 | 15.1 | – | – | – | – | 4.1%
O=c1c2c3c(sc2nc2n1CCCCC2)CCCC3 | 23.2 | 10 | 45.9 | – | – | – | – | 8%
O=CC1=C(Sc2ccc3ccccc3c2)c2sc3nc4n(c(=O)c3c2CC1)CCCCC4 | 64 | – | – | 19% | 40.1% | – | – | 55.2%

The remaining lines, values ahead:

inhibition [1] [%] | inhibition [2] [%] | inhibition [3] [%] | inhibition [4] | inhibition [5] | EC50 (Estrogen receptor) [µM] | EC50 (Estrogen receptor beta) [µM] | inhibition [6] | SMILES
2.9 | – | – | 19.7% | 41.1% | – | – | 0.1% | CCCSC1=C(/C=N/O)CCc2c1sc1nc3n(c(=O)c21)CCCCC3
94.5 | 66.1 | 100 | inactive | 2% | – | – | 71.3% | CCSC1=C(C=O)CCc2c1sc1nc3n(c(=O)c21)CCCCC3
13.9 | 8.4 | 8.9 | – | – | – | – | 1.1% | CCCSC1=C(/C=C/C(C)=O)CCc2c1sc1nc3n(c(=O)c21)CCCCC3
– | – | – | – | – | > 10 | – | – | O=CC1=C(Cl)c2sc3nc4n(c(=O)c3c2CCC1)CCCCC4
87.2 | – | – | 10.5% | 13.7% | – | – | 79.2% | O=CC1=C(Sc2ccncc2)c2sc3nc4n(c(=O)c3c2CC1)CCCCC4
67.2 | – | – | – | – | – | – | 16.7% | CCCSC1=C(C=O)CCc2c1sc1nc3n(c(=O)c21)CCC3
96.5 | 52.6 | 84.1 | 40.9% | 48.1% | > 1 | > 1 | 94.2% | O=CC1=C(Sc2cccc(O)c2)c2sc3nc4n(c(=O)c3c2CC1)CCCCC4
85.1 | – | – | – | – | > 10 | > 10 | 63.3% | O=CC1=C(Sc2ccccc2)c2sc3nc4n(c(=O)c3c2CC1)CCCCC4
89.6 | 33.6 | 87 | inactive | 1.2% | > 10 | > 1 | 49.8% | CC(C)(C)SC1=C(C=O)CCc2c1sc1nc3n(c(=O)c21)CCCCC3
91.9 | 17.3 | 27.4 | 17% | 27.4% | – | – | 87.4% | O=CC1=C(Sc2ccc(F)cc2)c2sc3nc4n(c(=O)c3c2CC1)CCCCC4
92.9 | 71.9 | 100 | inactive | inactive | – | – | 64.7% | CC(C)SC1=C(C=O)CCc2c1sc1nc3n(c(=O)c21)CCCCC3
30.7 | – | – | 25.8% | 62.2% | – | – | 7.2% | O=CC1=C(SCc2ccccc2)c2sc3nc4n(c(=O)c3c2CC1)CCCCC4
91.3 | 18.2 | 90.1 | 32.6% | 71.6% | – | – | 85.6% | O=CC1=C(Sc2ccccc2O)c2sc3nc4n(c(=O)c3c2CC1)CCCCC4
80.6 | 18.9 | 69.4 | 8.2% | 32.1% | – | – | 47% | Cc1ccc(SC2=C(C=O)CCc3c2sc2nc4n(c(=O)c32)CCCCC4)cc1
87 | 43.9 | 100 | inactive | inactive | – | – | 35.2% | CCCSC1=C(C=O)CCCc2c1sc1nc3n(c(=O)c21)CCCCC3
87.4 | 40.3 | 80.5 | inactive | inactive | > 10 | > 1 | 46.6% | O=CC1=C(SC2CCCC2)c2sc3nc4n(c(=O)c3c2CC1)CCCCC4
95.2 | 74 | 100 | inactive | 5.3% | > 1 | > 1 | 72.9% | CCCSC1=C(C=O)CCc2c1sc1nc3n(c(=O)c21)CCCCC3
74.7 | 15.6 | 57 | 31.4% | 36.9% | > 1 | > 1 | 63.3% | CCCSC1=C(C=O)CCc2c1sc1nc3n(c(=O)c21)CCCCCC3
2.8 | – | – | – | – | – | – | 0.3% | O=CC1=C(SCCC(=O)O)c2sc3nc4n(c(=O)c3c2CC1)CCCCC4
93.4 | 54.1 | 100 | inactive | 7.8% | – | – | 67.6% | CCCCSC1=C(C=O)CCc2c1sc1nc3n(c(=O)c21)CCCCC3
